# Results as given in US20260102501A1, “ANTI-CANCER NUCLEAR HORMONE RECEPTOR-TARGETING COMPOUNDS” (Nuvation Bio Inc., priority 2022, published 2026).
# Legend:
# [1] = target: T1, ligand binding domain of the glucocorticoid receptor (HEK293 cells stably expressing) (Homo sapiens, UniProt P04150); assay: GR antagonism assay (luciferase reporter)
# T1 sequence (P04150 524-758 limits assumed): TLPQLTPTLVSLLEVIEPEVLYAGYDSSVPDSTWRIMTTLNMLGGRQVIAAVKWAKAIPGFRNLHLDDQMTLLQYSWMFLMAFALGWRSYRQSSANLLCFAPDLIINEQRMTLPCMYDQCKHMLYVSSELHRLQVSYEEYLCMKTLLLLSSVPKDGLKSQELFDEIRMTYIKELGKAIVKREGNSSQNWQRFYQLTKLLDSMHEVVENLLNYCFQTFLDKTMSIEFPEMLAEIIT
# [2] = target: T2, GR (cytosol from IM-9 cells) (Homo sapiens, UniProt P04150); assay: GR binding assay (3H-Dexamethasone displacement)
# T2 sequence (P04150 1-777): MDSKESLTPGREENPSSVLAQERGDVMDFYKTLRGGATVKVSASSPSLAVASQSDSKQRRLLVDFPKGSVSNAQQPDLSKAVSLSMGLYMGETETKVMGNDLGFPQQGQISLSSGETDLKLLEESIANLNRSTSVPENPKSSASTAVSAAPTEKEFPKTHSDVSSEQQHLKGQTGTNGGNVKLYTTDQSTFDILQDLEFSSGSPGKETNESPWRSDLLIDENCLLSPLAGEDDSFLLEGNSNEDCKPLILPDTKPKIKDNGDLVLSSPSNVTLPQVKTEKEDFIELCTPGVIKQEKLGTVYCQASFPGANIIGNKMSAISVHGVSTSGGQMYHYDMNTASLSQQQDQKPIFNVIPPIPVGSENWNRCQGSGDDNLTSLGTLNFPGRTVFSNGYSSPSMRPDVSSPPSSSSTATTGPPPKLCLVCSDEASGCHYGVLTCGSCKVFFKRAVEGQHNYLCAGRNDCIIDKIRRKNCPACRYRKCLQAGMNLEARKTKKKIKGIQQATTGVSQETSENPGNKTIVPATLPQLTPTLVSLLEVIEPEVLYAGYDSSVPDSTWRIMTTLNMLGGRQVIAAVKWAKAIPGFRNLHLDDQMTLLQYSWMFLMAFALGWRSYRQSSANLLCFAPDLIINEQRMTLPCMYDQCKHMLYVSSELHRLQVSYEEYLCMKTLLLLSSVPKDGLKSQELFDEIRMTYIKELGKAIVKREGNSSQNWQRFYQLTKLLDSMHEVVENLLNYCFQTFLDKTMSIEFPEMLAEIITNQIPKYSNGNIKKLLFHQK
# [3] = target: T3, full-length androgen receptor (HEK293 cells stably expressing) (Homo sapiens, UniProt P10275); assay: AR antagonism assay (luciferase reporter)
# T3 sequence (P10275 1-920): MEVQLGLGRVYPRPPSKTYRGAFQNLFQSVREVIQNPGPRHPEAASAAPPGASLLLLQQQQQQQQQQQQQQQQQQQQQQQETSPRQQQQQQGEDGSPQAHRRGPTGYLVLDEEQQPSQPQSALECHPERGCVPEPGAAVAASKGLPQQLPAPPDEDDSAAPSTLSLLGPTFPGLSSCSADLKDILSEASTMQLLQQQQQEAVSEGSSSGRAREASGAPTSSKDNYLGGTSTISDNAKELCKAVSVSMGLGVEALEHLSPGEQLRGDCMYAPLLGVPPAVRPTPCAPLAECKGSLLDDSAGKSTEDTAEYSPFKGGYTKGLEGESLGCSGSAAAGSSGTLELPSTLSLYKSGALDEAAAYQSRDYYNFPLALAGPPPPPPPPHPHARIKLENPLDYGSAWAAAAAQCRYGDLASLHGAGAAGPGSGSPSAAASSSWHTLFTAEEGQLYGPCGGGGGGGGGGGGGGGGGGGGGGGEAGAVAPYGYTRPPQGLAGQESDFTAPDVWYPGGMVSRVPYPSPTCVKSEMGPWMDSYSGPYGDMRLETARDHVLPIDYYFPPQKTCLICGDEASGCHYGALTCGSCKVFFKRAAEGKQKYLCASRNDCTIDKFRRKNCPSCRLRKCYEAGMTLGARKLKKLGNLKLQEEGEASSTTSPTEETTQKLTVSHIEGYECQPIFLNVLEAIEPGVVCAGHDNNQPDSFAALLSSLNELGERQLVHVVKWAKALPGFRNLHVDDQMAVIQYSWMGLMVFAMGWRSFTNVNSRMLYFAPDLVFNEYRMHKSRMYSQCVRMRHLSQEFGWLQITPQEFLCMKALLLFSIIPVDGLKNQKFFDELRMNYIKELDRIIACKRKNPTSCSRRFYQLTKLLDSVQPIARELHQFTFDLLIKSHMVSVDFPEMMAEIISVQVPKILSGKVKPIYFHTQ
# LNCap cells = assay: Cell viability assay (CellTiterGlo); assay type: cell-based; conditions: Homo sapiens, 144 h, 6 days incubation, CellTiterGlo, read-out: LNCap (IC50)
smiles,measurement,setting,value
"CC[C@@]1(O)C(=O)OCc2c1cc1n(c2=O)Cc2cc3c(CN4CCN(CCCCCCN(C)c5ccc([C@H]6C[C@@]7(C)[C@@H](CC[C@]7(OC(C)=O)C(C)=O)[C@@H]7CCC8=CC(=O)CCC8=C76)cc5)CC4)c(O)ccc3nc2-1 [Compound 36, (8S,11R,13S,14S,17R)-17-acetyl-11-(4-((6-(4-(((S)-4-ethyl-4,9-dihydroxy-3,14-dioxo-3,4,12,14-tetrahydro-1H-pyrano[3′,4′:6,7]indolizino[1,2-b]quinolin-10-yl)methyl)piperazin-1-yl)hexyl)(methyl)amino)phenyl)-13-methyl-3-oxo-2,3,6,7,8,11,12,13,14,15,16,17-dodecahydro-1H-cyclopenta[a]phenanthren-17-yl acetate]",IC50,[1],< 10 nM
same,IC50,[2],101 to 1000 nM
same,IC50,[3],101 to 1000 nM
same,IC50,LNCap cells,10 to 100 nM
